Experimental data from PubChem BioAssay AID328 (DTP/NCI, 2004).
Values joined by “and” are separate entries in the source; they are usually repeats but may differ in a detail not shown here. Equal values may be shown once. Inconclusive results and toxic doses are left out.

System: BDF1 mice, P388 leukemia ip, median survival T/C
Assay: NCI In Vivo Anticancer Drug Screen. Data for tumor model P388 Leukemia (intraperitoneal) in B6D2F1 (BDF1) mice
Settings: endpoint: median survival time, higher = longer survival
Method in brief: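 Each value expresses how treatment altered survival: treated-mouse outcome over vehicle-mouse outcome, both groups bearing the transplanted tumour.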

[1] = dose: 100.0 mg/kg/injection, schedule: Q01DX009 (ip), vehicle: Klucel (hydroxypropylcellulose) (HPC)
[2] = dose: 100.0 mg/kg/injection, schedule: Q04DX003 (ip), vehicle: Klucel (hydroxypropylcellulose) (HPC)
[3] = dose: 200.0 mg/kg/injection, schedule: Q01DX009 (ip), vehicle: Klucel (hydroxypropylcellulose) (HPC)
[4] = dose: 200.0 mg/kg/injection, schedule: Q04DX003 (ip), vehicle: Klucel (hydroxypropylcellulose) (HPC)
[5] = dose: 400.0 mg/kg/injection, schedule: Q01DX009 (ip), vehicle: Klucel (hydroxypropylcellulose) (HPC)
[6] = dose: 400.0 mg/kg/injection, schedule: Q04DX003 (ip), vehicle: Klucel (hydroxypropylcellulose) (HPC)
[7] = dose: 25.0 mg/kg/injection, schedule: Q01DX009 (ip), vehicle: Klucel (hydroxypropylcellulose) (HPC)
[8] = dose: 100.0 mg/kg/injection, schedule: Q01DX001 (ip), vehicle: saline with Tween-80
[9] = dose: 200.0 mg/kg/injection, schedule: Q01DX001 (ip), vehicle: saline with Tween-80
[10] = dose: 50.0 mg/kg/injection, schedule: Q01DX009 (ip), vehicle: saline with Tween-80
[11] = dose: 100.0 mg/kg/injection, schedule: Q01DX009 (ip), vehicle: saline with Tween-80
[12] = dose: 200.0 mg/kg/injection, schedule: Q01DX009 (ip), vehicle: saline with Tween-80

Structure (SMILES): COc1ccc(/C=C/C(=O)c2ccccc2)cc1OC
- T/C (dose: 37.5 mg/kg/injection, schedule: Q01DX009 (ip), vehicle: Klucel (hydroxypropylcellulose) (HPC)): 117 % of control
- T/C (dose: 50.0 mg/kg/injection, schedule: Q01DX009 (ip), vehicle: water): 92 % of control
- T/C (dose: 75.0 mg/kg/injection, schedule: Q01DX009 (ip), vehicle: Klucel (hydroxypropylcellulose) (HPC)): 111 % of control
- T/C (dose: 100.0 mg/kg/injection, schedule: Q01DX006 (ip), vehicle: water): 115 % of control
- T/C [1]: 105 % of control
- T/C (dose: 100.0 mg/kg/injection, schedule: Q01DX009 (ip), vehicle: water): 115 % of control
- T/C [2]: 113 % of control
- T/C (dose: 100.0 mg/kg/injection, schedule: Q04DX003 (ip), vehicle: water): 86 % of control
- T/C (dose: 150.0 mg/kg/injection, schedule: Q01DX009 (ip), vehicle: Klucel (hydroxypropylcellulose) (HPC)): 105 % of control
- T/C (dose: 200.0 mg/kg/injection, schedule: Q01DX006 (ip), vehicle: water): 108 % of control
- T/C [3]: 100 % of control
- T/C [4]: 90 % of control
- T/C (dose: 200.0 mg/kg/injection, schedule: Q04DX003 (ip), vehicle: water): 100 % of control
- T/C (dose: 300.0 mg/kg/injection, schedule: Q01DX009 (ip), vehicle: Klucel (hydroxypropylcellulose) (HPC)): 107 % of control and 111 % of control
- T/C (dose: 400.0 mg/kg/injection, schedule: Q01DX006 (ip), vehicle: water): 150 % of control
- T/C [5]: 109 % of control and 115 % of control
- T/C (dose: 400.0 mg/kg/injection, schedule: Q01DX009 (ip), vehicle: water): 124 % of control
- T/C [6]: 100 % of control
- T/C (dose: 400.0 mg/kg/injection, schedule: Q04DX003 (ip), vehicle: water): 98 % of control
- T/C (dose: 500.0 mg/kg/injection, schedule: Q01DX006 (ip), vehicle: water): 161 % of control
- T/C (dose: 500.0 mg/kg/injection, schedule: Q01DX009 (ip), vehicle: Klucel (hydroxypropylcellulose) (HPC)): 100 % of control

Structure (SMILES): S=c1nc[nH]c2c1ncn2CN1CCOCC1
- T/C [7]: 110 % of control

Structure (SMILES): Cc1ccc(N=Cc2ccccc2O)cc1Cl
- T/C [8]: 109 % of control
- T/C [9]: 100 % of control
- T/C (dose: 400.0 mg/kg/injection, schedule: Q01DX001 (ip), vehicle: saline with Tween-80): 100 % of control

Structure (SMILES): c1ccc2c(CNC3CCCCC3)c[nH]c2c1
- T/C [2]: 95 % of control
- T/C [4]: 90 % of control
- T/C [6]: 90 % of control

Structure (SMILES): CNCCCC12CC(c3ccccc31)c1ccccc12
- T/C (dose: 25.0 mg/kg/injection, schedule: Q01DX009 (ip), vehicle: saline with Tween-80): 103 % of control
- T/C [10]: 101 % of control
- T/C [11]: 112 % of control

Structure (SMILES): COC(=O)c1ccc(C(=O)OC)c(=O)[nH]1
- T/C [1]: 100 % of control
- T/C [2]: 104 % of control
- T/C [3]: 95 % of control
- T/C [4]: 104 % of control
- T/C [5]: 91 % of control
- T/C [6]: 104 % of control

Structure (SMILES): Cc1cc2nccc(/C=C/c3ccc(N(C)C)cc3)c2cc1C
- T/C [10]: 112 % of control
- T/C [11]: 120 % of control
- T/C [12]: 98 % of control

Structure (SMILES): CCCCCCCCCCCCCC(=O)CC
- T/C (dose: 85.0 mg/kg/injection, schedule: Q04DX003 (ip), vehicle: saline with Tween-80): 91 % of control
- T/C (dose: 135.0 mg/kg/injection, schedule: Q04DX003 (ip), vehicle: saline with Tween-80): 91 % of control
- T/C (dose: 200.0 mg/kg/injection, schedule: Q04DX003 (ip), vehicle: saline with Tween-80): 87 % of control

Structure (SMILES): CC1CCCC(CN=Cc2cc([N+](=O)[O-])ccc2O)[N-]1.CC1CCCC(CN=Cc2cc([N+](=O)[O-])ccc2O)[N-]1.[Ni+2] (stereo unspecified)
- T/C (dose: 12.5 mg/kg/injection, schedule: Q04DX003 (ip), vehicle: saline with Tween-80): 100 % of control
- T/C (dose: 25.0 mg/kg/injection, schedule: Q04DX003 (ip), vehicle: saline with Tween-80): 100 % of control
- T/C (dose: 50.0 mg/kg/injection, schedule: Q04DX003 (ip), vehicle: saline with Tween-80): 100 % of control

Structure (SMILES): N#CC1(c2ccc(Cl)cc2)CCC1
- T/C [11]: 112 % of control
- T/C [12]: 108 % of control

Structure (SMILES): CCCCCCCCCCCCCCCCCC[N+](C)(C)C
- T/C (dose: 1.56 mg/kg/injection, schedule: Q04DX003 (ip), vehicle: saline): 115 % of control
- T/C (dose: 3.12 mg/kg/injection, schedule: Q04DX003 (ip), vehicle: saline): 115 % of control
- T/C (dose: 4.12 mg/kg/injection, schedule: Q01DX009 (ip), vehicle: saline): 115 % of control
- T/C (dose: 6.25 mg/kg/injection, schedule: Q01DX009 (ip), vehicle: saline): 90 % of control
- T/C (dose: 6.25 mg/kg/injection, schedule: Q04DX003 (ip), vehicle: saline): 120 % of control
- T/C (dose: 9.2 mg/kg/injection, schedule: Q04DX003 (ip), vehicle: saline): 104 % of control
- T/C (dose: 14.0 mg/kg/injection, schedule: Q04DX003 (ip), vehicle: saline): 100 % of control
- T/C (dose: 21.0 mg/kg/injection, schedule: Q04DX003 (ip), vehicle: saline): 90 % of control

Structure (SMILES): CC/C(=C(\c1ccccc1)c1ccc(OCCN(C)C)cc1)c1ccccc1
- T/C [7]: 122 % of control
- T/C (dose: 50.0 mg/kg/injection, schedule: Q01DX009 (ip), vehicle: Klucel (hydroxypropylcellulose) (HPC)): 122 % of control
- T/C [1]: 102 % of control and 108 % of control

Structure (SMILES): CCCCN(C)N=Nc1ccccc1C(N)=O
- T/C (dose: 50.0 mg/kg/injection, schedule: Q04DX003 (ip), vehicle: Klucel (hydroxypropylcellulose) (HPC)): 100 % of control
- T/C [11]: 120 % of control
- T/C [2]: 97 % of control
- T/C [4]: 109 % of control
- T/C [6]: 103 % of control

Structure (SMILES): CCC(c1ccccc1)C(C(=O)O)C(=O)O (stereo unspecified)
- T/C (dose: 100.0 mg/kg/injection, schedule: Q04DX002 (ip), vehicle: saline with Tween-80): 110 % of control
- T/C (dose: 200.0 mg/kg/injection, schedule: Q04DX002 (ip), vehicle: saline with Tween-80): 101 % of control
- T/C (dose: 400.0 mg/kg/injection, schedule: Q04DX002 (ip), vehicle: saline with Tween-80): 103 % of control

Structure (SMILES): C[NH-].C[NH-].[I][Pt+2][I]
- T/C (dose: 1.56 mg/kg/injection, schedule: Q04DX003 (ip), vehicle: other): 120 % of control
- T/C (dose: 3.12 mg/kg/injection, schedule: Q04DX003 (ip), vehicle: other): 120 % of control
- T/C (dose: 6.25 mg/kg/injection, schedule: Q04DX003 (ip), vehicle: other): 163 % of control
- T/C (dose: 12.5 mg/kg/injection, schedule: Q04DX003 (ip), vehicle: other): 163 % of control
- T/C (dose: 50.0 mg/kg/injection, schedule: Q04DX003 (ip), vehicle: other): 154 % of control
- T/C (dose: 100.0 mg/kg/injection, schedule: Q04DX003 (ip), vehicle: other): 116 % of control

Structure (SMILES): CS(=O)(=O)C(F)(F)C(F)(F)C(F)(F)C(F)(F)F
- T/C (dose: 50.0 mg/kg/injection, schedule: Q01DX009 (ip), vehicle: saline): 101 % of control
- T/C (dose: 100.0 mg/kg/injection, schedule: Q01DX009 (ip), vehicle: saline): 101 % of control
- T/C (dose: 200.0 mg/kg/injection, schedule: Q01DX009 (ip), vehicle: saline): 106 % of control

Structure (SMILES): CCOc1cc(Cl)c(N)c(Cl)c1
- T/C [8]: 114 % of control
- T/C [9]: 98 % of control

Structure (SMILES): COc1cc([N+](=O)[O-])c2c(ccc[n+]2C)c1OC
- T/C (dose: 50.0 mg/kg/injection, schedule: Q01DX001 (ip), vehicle: saline with Tween-80): 100 % of control
- T/C [8]: 91 % of control
- T/C [9]: 112 % of control
